From ChEMBL document CHEMBL3885881, “DrugMatrix”

Species on record: Rattus norvegicus
Assay: DrugMatrix - Regimen: Daily Repeat
Format: toxicity, organism-based, Sprague-Dawley
Set-up: regimen Daily Repeat, gender Male, age 6-8 weeks
Settings: in vivo, po, 0 mg/kg, route oral GAVAGE, dose level Control, vehicle 100 % WATER; for ABSOLUTE BASOPHIL / ABSOLUTE EOSINOPHIL / ABSOLUTE LYMPHOCYTE / ABSOLUTE MONOCYTE / ABSOLUTE SEGMENTED NEUTROPHIL / BASOPHIL / EOSINOPHIL / ERYTHROCYTE COUNT / HEMATOCRIT / HEMOGLOBIN / LEUKOCYTE COUNT / LYMPHOCYTE / MEAN CORPUSCULAR HEMOGLOBIN / MEAN CORPUSCULAR HEMOGLOBIN CONCENTRATION / MEAN CORPUSCULAR VOLUME / MONOCYTE / NEUTROPHIL / NUCLEATED RED BLOOD CELLS / PLATELET COUNT: tissue Blood; for ALANINE AMINOTRANSFERASE / ALBUMIN / ALKALINE PHOSPHATASE / ASPARTATE AMINOTRANSFERASE / BLOOD UREA NITROGEN / CARBON DIOXIDE / CHLORIDE / CHOLESTEROL / CREATINE PHOSPHOKINASE / CREATININE / GLUCOSE / LACTATE DEHYDROGENASE / LIPASE / PHOSPHORUS / POTASSIUM / SODIUM / TOTAL BILIRUBIN / TOTAL PROTEIN / URIC ACID: tissue Plasma

C[N+](C)(C)CCO.[Cl-] [CHOLINE CHLORIDE]
ABSOLUTE BASOPHIL (72 h, time 3 day): 0 CELLS/uL
ABSOLUTE EOSINOPHIL (72 h, time 3 day): 0 CELLS/uL
ABSOLUTE LYMPHOCYTE (72 h, time 3 day): 10386.33 CELLS/uL
ABSOLUTE MONOCYTE (72 h, time 3 day): 88.5 CELLS/uL
ABSOLUTE SEGMENTED NEUTROPHIL (72 h, time 3 day): 1008.5 CELLS/uL
BASOPHIL (72 h, time 3 day): 0%
EOSINOPHIL (72 h, time 3 day): 0%
ERYTHROCYTE COUNT (72 h, time 3 day): 5.16 x10E6/uL
HEMATOCRIT (72 h, time 3 day): 32.43%
HEMOGLOBIN (72 h, time 3 day): 12.98 G/DL
LEUKOCYTE COUNT (72 h, time 3 day): 11.48 x10E3/uL
LYMPHOCYTE (72 h, time 3 day): 92.33%
MEAN CORPUSCULAR HEMOGLOBIN (72 h, time 3 day): 25.23 pg
MEAN CORPUSCULAR HEMOGLOBIN CONCENTRATION (72 h, time 3 day): 40.08 G/DL
MEAN CORPUSCULAR VOLUME (72 h, time 3 day): 62.95 fL
MONOCYTE (72 h, time 3 day): 0.67%
NEUTROPHIL (72 h, time 3 day): 7%
NUCLEATED RED BLOOD CELLS (72 h, time 3 day): 0 /100WBC
PLATELET COUNT (72 h, time 3 day): 1016.67 x10E3/uL
ALANINE AMINOTRANSFERASE (72 h, time 3 day): 62.17 u/L
ALBUMIN (72 h, time 3 day): 3.95 G/DL
ALKALINE PHOSPHATASE (72 h, time 3 day): 363.5 u/L
ASPARTATE AMINOTRANSFERASE (72 h, time 3 day): 118 u/L
BLOOD UREA NITROGEN (72 h, time 3 day): 14.5 mg/dL
CARBON DIOXIDE (72 h, time 3 day): 22.83 mmol/L
CHLORIDE (72 h, time 3 day): 100.67 MEQ/L
CHOLESTEROL (72 h, time 3 day): 66 mg/dL
CREATINE PHOSPHOKINASE (72 h, time 3 day): 1308.83 u/L
CREATININE (72 h, time 3 day): 0.22 mg/dL
GLUCOSE (72 h, time 3 day): 187.5 mg/dL
LACTATE DEHYDROGENASE (72 h, time 3 day): 380.17 u/L
LIPASE (72 h, time 3 day): 16.17 u/L
PHOSPHORUS (72 h, time 3 day): 14.27 mg/dL
POTASSIUM (72 h, time 3 day): 6.8 MEQ/L
SODIUM (72 h, time 3 day): 142.53 MEQ/L
TOTAL BILIRUBIN (72 h, time 3 day): 0.2 mg/dL
TOTAL PROTEIN (72 h, time 3 day): 5.68 G/DL
URIC ACID (72 h, time 3 day): 2.87 mg/dL
ABSOLUTE BASOPHIL (120 h, time 5 day): 0 CELLS/uL
ABSOLUTE EOSINOPHIL (120 h, time 5 day): 80 CELLS/uL
ABSOLUTE LYMPHOCYTE (120 h, time 5 day): 13301.33 CELLS/uL
ABSOLUTE MONOCYTE (120 h, time 5 day): 180.83 CELLS/uL
ABSOLUTE SEGMENTED NEUTROPHIL (120 h, time 5 day): 1187.83 CELLS/uL
BASOPHIL (120 h, time 5 day): 0%
EOSINOPHIL (120 h, time 5 day): 0.5%
ERYTHROCYTE COUNT (120 h, time 5 day): 5.54 x10E6/uL
HEMATOCRIT (120 h, time 5 day): 35.65%
HEMOGLOBIN (120 h, time 5 day): 14.22 G/DL
LEUKOCYTE COUNT (120 h, time 5 day): 14.75 x10E3/uL
LYMPHOCYTE (120 h, time 5 day): 90.67%
MEAN CORPUSCULAR HEMOGLOBIN (120 h, time 5 day): 25.65 pg
MEAN CORPUSCULAR HEMOGLOBIN CONCENTRATION (120 h, time 5 day): 39.88 G/DL
MEAN CORPUSCULAR VOLUME (120 h, time 5 day): 64.35 fL
MONOCYTE (120 h, time 5 day): 1%
NEUTROPHIL (120 h, time 5 day): 7.83%
NUCLEATED RED BLOOD CELLS (120 h, time 5 day): 0.17 /100WBC
PLATELET COUNT (120 h, time 5 day): 1285.33 x10E3/uL
ALANINE AMINOTRANSFERASE (120 h, time 5 day): 51.67 u/L
ALBUMIN (120 h, time 5 day): 4.08 G/DL
ALKALINE PHOSPHATASE (120 h, time 5 day): 391.5 u/L
ASPARTATE AMINOTRANSFERASE (120 h, time 5 day): 99.5 u/L
BLOOD UREA NITROGEN (120 h, time 5 day): 15.5 mg/dL
CARBON DIOXIDE (120 h, time 5 day): 28.33 mmol/L
CHLORIDE (120 h, time 5 day): 101.83 MEQ/L
CHOLESTEROL (120 h, time 5 day): 67.83 mg/dL
CREATINE PHOSPHOKINASE (120 h, time 5 day): 771.33 u/L
CREATININE (120 h, time 5 day): 0.23 mg/dL
GLUCOSE (120 h, time 5 day): 156.5 mg/dL
LACTATE DEHYDROGENASE (120 h, time 5 day): 544.33 u/L
LIPASE (120 h, time 5 day): 10.17 u/L
PHOSPHORUS (120 h, time 5 day): 12.03 mg/dL
POTASSIUM (120 h, time 5 day): 6.81 MEQ/L
SODIUM (120 h, time 5 day): 144.13 MEQ/L
TOTAL BILIRUBIN (120 h, time 5 day): 0.22 mg/dL
TOTAL PROTEIN (120 h, time 5 day): 6 G/DL
URIC ACID (120 h, time 5 day): 2.18 mg/dL
